Source: US7868135B2, “Compositions of lipopeptide antibiotic derivatives and methods of use thereof” (priority 2003, dated 2011)

Assays:
[1] = test system: Streptococcus pneumoniae (SPN032, ATCC 1081); experiment: Intranasal murine lung infection model; type: in vivo; settings: Swiss CD1 mice, i.n. S. pneumoniae, i.v. treatment at 3, 24 and 48 hours post-infection, deaths over ten days
Protocol: (§1) Other exemplary in vivo models of infection that may be used to assess, for example, the efficacy of an antimicrobial lipopeptide of the instant disclosure include the following: (A) a mouse (murine) model of lung infection (pneumonia) wherein the bacterial infection is administered intranasally (i.n.); (B) a murine thigh muscle model wherein the bacterial infection is administered intramuscularly (i.m.) in normal or neutropenic (immunocompromised) mice; and (C) a combination murine thigh muscle model (i.m. infection)/lung (i.n.) infection.
Antimicrobial lipopeptide derivatives of the instant invention were tested for antimicrobial activity against Gram-positive bacteria in an intranasal (i.n.) murine lung infection model (i.e., bacteria were innoculated i.n. and lipopeptide compounds were administered i.v.). Streptococcus pneumoniae (SPN032, ATCC 1081) were grown on 5% sheep blood agar plates for 24 h at 37° C., harvested and then resuspended in 0.9% saline. A group of eight Swiss CD1 mice were sedated with 2% isoflurane, and each was infected i.n. dropwise to the nares with 50 μl of the prepared bacterial inoculum (i.e., a dose of about 10^6 CFU/mouse). […] The ED50 (mg/kg) for each compound was calculated using the method of Reed and Meunch (Am. J. Hyg. 27: 493, 1938).

[2] = test system: Streptococcus pneumoniae (SPN0002); experiment: Lung infection model in neutropenic mice; type: in vivo
Protocol: Antimicrobial lipopeptide derivatives of the instant invention were tested for antimicrobial activity against Gram-positive bacteria in an intranasal (i.n.), immunocomprimised murine lung infection model (i.e., bacteria were innoculated i.n. and lipopeptide compounds were administered i.v.). Streptococcus pneumoniae (SPN0002) were grown on 5% sheep blood agar plates for 24 h at 37° C., harvested and then resuspended in 0.9% saline. A group of three to four Swiss CD1 mice were rendered neutropenic by administration of cyclophosphamide (Sigma Chemical Co.; 150 mg/kg, i.p.) on day −4 and −1 before infection. At time −18 to −24 hours, each mouse was infected i.n. dropwise via the nares with 50 μl of the prepared bacterial inoculum (i.e., a dose of about 5×10^6 CFU/mouse). At 18 to 24 hours post-infection, the groups of mice received i.v. (1) a lipopeptide derivative formulated in a 5% D-mannitol solution at a dose of about 1 mg/kg, 3 mg/kg, 10 mg/kg, or 30 mg/kg; (2) the 5% mannitol vehicle alone at a dose volume of 10 mL/kg; or (3) a known antibiotic, such as ampicillin, at a similar dose as the lipopeptide compounds. At 18 to 24 hours post-antibiotic treatment, mice were sacrificed and lungs harvested. Lungs were sampled by spreading homogenates on blood agar plates and incubating for 24 h at 37° C., and then counting the number of CFU. The EKill (killing effect; i.e., log10 CFU/lung reduction as compared to CFU count at intial treatment time) and the EMax (maximum reduction effect; i.e., log10 CFU/lung reduction as compared to CFU count of control at 24 hours) for each compound was calculated.

[3] = test system: Staphylococcus aureus (SAU0017); experiment: Thigh infection model in neutropenic mice; type: in vivo; settings: neutropenic Swiss CD1 mice, i.m. S. aureus, i.v. treatment two hours post-infection, thigh CFU at 24 hours
Protocol: as §1

[4] = test system: Staphylococcus aureus (MSSA); settings: 24 h
Outline: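 Broth microdilution MIC per NCCLS M7-A6 with doubling serial dilutions, in cation-adjusted Mueller-Hinton broth supplemented with 0.625 mM calcium.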

## CCCCCCCCCCCCCCC(=O)NC(CC(=O)O)C(=O)NC1C(=O)N2CCCCC2C(=O)NC(C(C)C(=O)O)C(=O)NC(CC(=O)O)C(=O)NCC(=O)NC(CC(=O)O)C(=O)NCC(=O)NC(C(C)NC(=O)CNC(=O)[C@@H](N)CCCCN)C(=O)NC(C(C)C)C(=O)N2CCCC2C(=O)NC1C (some centres unmarked) [Compound 4, C15-Amphomycin-9-Gly-Lys]
[1]
  ED50: 1.3 mg/kg

## CCCCCCCCCCCCCCC(=O)NC(CC(=O)O)C(=O)NC1C(=O)N2CCCCC2C(=O)NC(C(C)C(=O)O)C(=O)NC(CC(=O)O)C(=O)NCC(=O)NC(CC(=O)O)C(=O)NCC(=O)NC(C(C)NC(=O)CCN)C(=O)NC(C(C)C)C(=O)N2CCCC2C(=O)NC1C (stereo not drawn) [Compound 147, C15-Amphomycin-9-(β-Ala)]
[2]; 30 mg/kg i.v.
  EKill (log10 CFU/lung reduction versus count at initial treatment time): 3.2 log10 CFU/lung
[2]; highest dose level 30 mg/kg i.v.
  log10 CFU/lung reduction (EMax, versus control at 24 hours): 4.0 log10 CFU/lung
[3]
  ED50: 1.1 to 1.8 mg/kg

## CCCCCCCCCCCCCCC(=O)NC(CC(=O)O)C(=O)NC1C(=O)N2CCCCC2C(=O)NC(C(C)C(=O)O)C(=O)NC(CC(=O)O)C(=O)NCC(=O)NC(CC(=O)O)C(=O)NCC(=O)NC(C(C)NC(=O)CN(C)C(=O)[C@@H](N)CCCCN)C(=O)NC(C(C)C)C(=O)N2CCCC2C(=O)NC1C (some centres unmarked) [Compound 199, C15-Amphomycin-9-Sar-Lys]
[4]
  MIC: 0.5 to 1 µg/mL
